This is an account of results in patent publication US10118947B2, “Modulation of structured polypeptide specificity” (BICYCLE THERAPEUTICS LIMITED, priority 2013, dated 2018).

Each structure is given as a SMILES string. Read-outs that look alike come from different tables or passages of the source. Numbered stars: 1 amine (or outer) side, 2 acyl side, 3 side chain; on linkers, the order of the positions; unused ones are H or OH. Bridge positions count the residues as written; N and C are the ends. Square brackets hold non-standard residues; d marks the D form. Peptide text beside a SMILES is read from it. TBMB = c1c(C[*:1])cc(C[*:3])cc1C[*:2]; 4Pal = N[C@@H](Cc1ccncc1)C(=O)O; Chg = N[C@H](C(=O)O)C1CCCCC1; Tle = CC(C)(C)[C@H](N)C(=O)O; NMeS = CN[C@@H](CO)C(=O)O; Sar = CNCC(=O)O

The test deals with T1, human plasma Kallikrein (Homo sapiens, UniProt P03952).
T1 construct: purchased Stratech, UK
T1 sequence (P03952 20-638): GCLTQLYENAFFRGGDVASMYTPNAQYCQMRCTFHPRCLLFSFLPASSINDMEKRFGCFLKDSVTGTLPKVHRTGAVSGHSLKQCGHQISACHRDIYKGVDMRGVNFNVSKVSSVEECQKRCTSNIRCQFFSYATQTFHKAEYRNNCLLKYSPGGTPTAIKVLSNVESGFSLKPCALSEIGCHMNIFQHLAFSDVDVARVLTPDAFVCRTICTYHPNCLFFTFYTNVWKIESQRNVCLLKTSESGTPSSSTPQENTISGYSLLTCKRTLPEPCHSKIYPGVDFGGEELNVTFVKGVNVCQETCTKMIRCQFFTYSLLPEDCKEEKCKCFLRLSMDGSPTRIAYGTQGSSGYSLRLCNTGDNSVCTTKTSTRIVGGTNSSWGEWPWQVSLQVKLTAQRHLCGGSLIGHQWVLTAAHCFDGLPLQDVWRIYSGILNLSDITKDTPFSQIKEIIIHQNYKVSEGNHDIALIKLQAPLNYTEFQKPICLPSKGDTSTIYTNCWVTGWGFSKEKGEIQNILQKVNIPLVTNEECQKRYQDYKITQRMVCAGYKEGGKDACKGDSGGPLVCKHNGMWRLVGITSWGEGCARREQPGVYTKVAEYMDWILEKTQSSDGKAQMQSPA
Put plainly: Functional enzyme inhibition assay with fluorogenic substrate Z-PheArg-AMC, human plasma Kallikrein. In kind it is biochemical. Conditions: for F (Kivar/KiWT): ratio of Ki to wild type. How it is done:
Functional enzyme assays were conducted in 10 mM Tris HCl, 150 mM NaCl, 10 mM MgCl2, 1 mM CaCl2) and 1 mg/mL BSA (all Sigma UK) pH7.4 at 25° C. in solid black 96 well plates. Briefly 26.5 pM human plasma Kallikrein (purchased from Stratech, UK) or 500 pM rat plasma Kallikrein (expressed and purified in house) were incubated in the absence or presence of increasing concentrations of test peptide for 15 minutes before addition of the fluorogenic substrate Z-PheArg-AMC (Enzo Lifesciences UK) to a final assay concentration of 100 μM in 4% DMSO. Release of AMC was measured using a Pherastar FS (BMG Labtech), excitation 360 nm, emission 460 nm. The rate of the linear phase of the reaction, typically 5 to 45 minutes, was calculated in MARS data analysis software (BMG labtech). The rate was then used to calculate the IC50 and Ki in Prism (GraphPad). A four parameter inhibition non-linear regression equation was used to calculate the IC50.
Peptides were dissolved as the TFA-salts in their powder form, and stock solutions were usually prepared in water. All solutions were centrifuged and filtered ([…] syringe filters) prior absorption measurement at 280 nm. […] For peptides containing non-natural amino acids with suspected chromophoric properties (i.e. NorHar, 4PhenylPro, 3Pal, 4Pal, Tic, 4GuanPhe, 4,4-BPAI, 3,3-DPA, 1NAI, 2NAI, 4BenzylPro, Ind) concentrations were determined by weighing the powder and dissolving the peptide in a defined quantity of water.

[1] abbreviates: Table 24b, residue 7 modifications, read-out: Ki.
The mark [2] stands for this setting: Table 24a, residue 6 modification in the context of Ac-(06-34-18), read-out: Ki (nM) Ac-(06-34-18).
The mark [3] stands for this setting: Table 3c, D-Alanine scan in Loop2, read-out: Ki.

Broadly, the Ki is the equilibrium dissociation constant of an inhibitor or competing ligand from its target. Turning to `CC(=O)N[C@H]1CSCc2cc3cc(c2)CSC[C@H](NC(=O)[C@H](CCCNC(=N)N)NC(=O)[C@H](Cc2ccc(O)cc2)NC(=O)[C@@H]2CCCN2C(=O)[C@H](Cc2ccccc2)NC(=O)[C@H](CO)NC1=O)C(=O)N[C@@H](CC(C)C)C(=O)N[C@@H](Cc1ccccc1)C(=O)N[C@@H](CCC(N)=O)C(=O)N[C@@H](CC(=O)O)C(=O)N[C@@H](CC(C)C)C(=O)N[C@H](C(N)=O)CSC3` [Ac-(06-34-18) Phe2 Tyr4 Phe7] (Ac-CSFPYRCLFQDLC-NH2; linker 1-7-13 via TBMB), the Ki under setting [1] is 43 nM. Besides, the “F (Kivar/KiWT)” value (Table 24b) stood at 102.
Consider `CC(=O)N[C@H]1CSCc2cc3cc(c2)CSC[C@H](NC(=O)[C@H](CCCNC(=N)N)NC(=O)[C@@H](C)NC(=O)[C@@H]2CCCN2C(=O)[C@H](Cc2c[nH]c4ccccc24)NC(=O)[C@H](CO)NC1=O)C(=O)N[C@@H](CC(C)C)C(=O)N[C@@H](Cc1c[nH]cn1)C(=O)N[C@@H](CCC(N)=O)C(=O)N[C@@H](CC(=O)O)C(=O)N[C@@H](CC(C)C)C(=O)N[C@H](C(N)=O)CSC3` [Ac-(06-34-18) D-Ala4], for which the “reduction in potency/affinity compared to wildtype” value (“reduction in potency/affinity” for short) is reported as 7000 fold.
Turning to `CC(=O)N[C@H]1CSCc2cc3cc(c2)CSC[C@H](NC(=O)[C@H](CCCNC(=N)N)NC(=O)[C@H](C)NC(=O)[C@@H]2CCCN2C(=O)[C@@H](Cc2c[nH]c4ccccc24)NC(=O)[C@H](CO)NC1=O)C(=O)N[C@@H](CC(C)C)C(=O)N[C@@H](Cc1c[nH]cn1)C(=O)N[C@@H](CCC(N)=O)C(=O)N[C@@H](CC(=O)O)C(=O)N[C@@H](CC(C)C)C(=O)N[C@H](C(N)=O)CSC3` [Ac-(06-34-18) D-Trp2], the “reduction in potency/affinity” value is listed as 45000 fold.
Regarding `CC(=O)N[C@H]1CSCc2cc3cc(c2)CSC[C@H](NC(=O)[C@H](CCCNC(=N)N)NC(=O)[C@H](C)NC(=O)[C@@H]2CCCN2C(=O)[C@H](Cc2c[nH]c4ccccc24)NC(=O)[C@H](CO)NC1=O)C(=O)N[C@@H](C1CCCCC1)C(=O)N[C@@H](Cc1c[nH]cn1)C(=O)N[C@@H](CCC(N)=O)C(=O)N[C@@H](CC(=O)O)C(=O)N[C@@H](CC(C)C)C(=O)N[C@H](C(N)=O)CSC3` [Ac-(06-34-18) Chg6] (Ac-CSWPARC[Chg]HQDLC-NH2; linker 1-7-13 via TBMB), the Ki under setting [2] is 0.13 nM.
Turning to `CC(=O)N[C@H]1CSCc2cc3cc(c2)CSC[C@H](NC(=O)[C@@H](CCCNC(=N)N)NC(=O)[C@H](C)NC(=O)[C@@H]2CCCN2C(=O)[C@H](Cc2c[nH]c4ccccc24)NC(=O)[C@H](CO)NC1=O)C(=O)N[C@@H](CC(C)C)C(=O)N[C@@H](Cc1c[nH]cn1)C(=O)N[C@@H](CCC(N)=O)C(=O)N[C@@H](CC(=O)O)C(=O)N[C@@H](CC(C)C)C(=O)N[C@H](C(N)=O)CSC3` [Ac-(06-34-18) D-Arg5], the “reduction in potency/affinity” value is listed as 300 fold.
For `CC(=O)N[C@H]1CSCc2cc3cc(c2)CSC[C@H](NC(=O)[C@H](CCCNC(=N)N)NC(=O)[C@H](C)NC(=O)[C@@H]2CCCN2C(=O)[C@H](Cc2c[nH]c4ccccc24)NC(=O)[C@H](CO)NC1=O)C(=O)N[C@@H](CC(C)C)C(=O)N[C@@H](Cc1c[nH]cn1)C(=O)N[C@H](C)C(=O)N[C@@H](CC(=O)O)C(=O)N[C@@H](CC(C)C)C(=O)N[C@H](C(N)=O)CSC3` [Ac-(06-34-18) D-Ala8] (Ac-CSWPARCLH[dA]DLC-NH2; linker 1-7-13 via TBMB), the inhibitory constant (Ki) under setting [3] turned out to be 11.7 nM. The “F (Kivar/KiWT)” value (Table 3c) was found to be 28.
As to `CC(=O)N[C@H]1CSCc2cc3cc(c2)CSC[C@H](NC(=O)[C@H](CCCNC(=N)N)NC(=O)[C@H](Cc2ccc(O)cc2)NC(=O)[C@@H]2CCCN2C(=O)[C@H](Cc2ccccc2)NC(=O)[C@H](CO)NC1=O)C(=O)N[C@@H](CC(C)C)C(=O)N[C@@H](Cc1ccncc1)C(=O)N[C@@H](CCC(N)=O)C(=O)N[C@@H](CC(=O)O)C(=O)N[C@@H](CC(C)C)C(=O)N[C@H](C(N)=O)CSC3` [Ac-(06-34-18) Phe2 Tyr4 4Pal7] (Ac-CSFPYRCL[4Pal]QDLC-NH2; linker 1-7-13 via TBMB), the Ki under setting [1] was 79 nM. The “F (Kivar/KiWT)” value (Table 24b) was 187.
Turning to `CC(=O)N[C@H]1CSCc2cc3cc(c2)CSC[C@H](NC(=O)[C@H](CCCNC(=N)N)NC(=O)[C@H](C)NC(=O)[C@@H]2CCCN2C(=O)[C@H](Cc2c[nH]c4ccccc24)NC(=O)[C@H](CO)NC1=O)C(=O)N[C@H](C)C(=O)N[C@@H](Cc1c[nH]cn1)C(=O)N[C@@H](CCC(N)=O)C(=O)N[C@@H](CC(=O)O)C(=O)N[C@@H](CC(C)C)C(=O)N[C@H](C(N)=O)CSC3` [Ac-(06-34-18) D-Ala6] (Ac-CSWPARC[dA]HQDLC-NH2; linker 1-7-13 via TBMB), under setting [3], the Ki amounted to 1040 nM. The “F (Kivar/KiWT)” value (Table 3c) is given as 2469.
On the same counts, the results for `CC(=O)N[C@H]1CSCc2cc3cc(c2)CSC[C@H](NC(=O)[C@H](CCCNC(=N)N)NC(=O)[C@H](C)NC(=O)[C@@H]2CCCN2C(=O)[C@H](Cc2c[nH]c4ccccc24)NC(=O)[C@H](CO)NC1=O)C(=O)N[C@@H](CC(C)C)C(=O)N[C@@H](Cc1c[nH]cn1)C(=O)N[C@@H](CCC(N)=O)C(=O)N[C@H](C)C(=O)N[C@@H](CC(C)C)C(=O)N[C@H](C(N)=O)CSC3` [Ac-(06-34-18) D-Ala9] (Ac-CSWPARCLHQ[dA]LC-NH2; linker 1-7-13 via TBMB) are 0.87 nM and 2.
Turning to `CC(C)C[C@@H]1NC(=O)[C@H](CC(=O)O)NC(=O)[C@H](CCC(N)=O)NC(=O)[C@H](Cc2c[nH]cn2)NC(=O)CN(C)C(=O)[C@@H]2CSCc3cc(cc(c3)CSC[C@H](NC(=O)[C@H](C)N)C(=O)N(C)CC(=O)N[C@@H](Cc3c[nH]c4ccccc34)C(=O)N3CCC[C@H]3C(=O)N[C@@H](C)C(=O)N[C@@H](CCCNC(=N)N)C(=O)N2)CSC[C@@H](C(=O)N[C@@H](C)C(N)=O)NC1=O` [06-34-03-N-MeGly1,6, ACN-MeGWPARC(N-MeG)HQDLCA] (H-AC[Sar]WPARC[Sar]HQDLCA-NH2; linker 2-8-14 via TBMB; N-terminus and C-terminus assumed), the “potency / binding to kallikrein (in words)” value was “reduction in potency”.
In the case of `CC(C)C[C@@H]1NC(=O)[C@H](CC(=O)O)NC(=O)[C@H](CCC(N)=O)NC(=O)[C@H](Cc2c[nH]cn2)NC(=O)[C@H](CC(C)C)NC(=O)[C@@H]2CSCc3cc(cc(c3)CSC[C@H](NC(=O)[C@H](C)N)C(=O)N(C)[C@@H](CO)C(=O)N[C@@H](Cc3c[nH]c4ccccc34)C(=O)N3CCC[C@H]3C(=O)N[C@@H](C)C(=O)N[C@@H](CCCNC(=N)N)C(=O)N2)CSC[C@@H](C(=O)N[C@@H](C)C(N)=O)NC1=O` [06-34-18-N-MeSer1] (H-AC[NMeS]WPARCLHQDLCA-NH2; linker 2-8-14 via TBMB), the affinity (Ki human PK (nM), Table 6), expressed as Ki, was 0.56 nM.
Consider `CC[C@H](C)[C@@H]1NC(=O)[C@@H]2CSCc3cc(cc(c3)CSC[C@H](NC(C)=O)C(=O)N[C@@H](CO)C(=O)N[C@@H](Cc3ccccc3)C(=O)N3CCC[C@H]3C(=O)N[C@@H](Cc3ccc(O)cc3)C(=O)N[C@@H](CCCNC(=N)N)C(=O)N2)CSC[C@@H](C(N)=O)NC(=O)[C@H](CC(C)C)NC(=O)[C@H](CC(=O)O)NC(=O)[C@H](CCC(N)=O)NC(=O)[C@H](Cc2c[nH]cn2)NC1=O` [Ac-(06-34-18) Phe2 Tyr4 Ile6] (Ac-CSFPYRCIHQDLC-NH2; linker 1-7-13 via TBMB), for which the Ki (Table 24a, residue 6 modification in the context of Ac-(06-34-18) Phe2 Tyr4, read-out: Ki (nM) Ac-(06-34-18) Phe2 Tyr4) was determined as 1.46 nM.
In the case of `CC(=O)N[C@H]1CSCc2cc3cc(c2)CSC[C@H](NC(=O)[C@H](CCCNC(=N)N)NC(=O)[C@H](Cc2ccc(O)cc2)NC(=O)[C@@H]2CCCN2C(=O)[C@H](Cc2ccccc2)NC(=O)[C@H](CO)NC1=O)C(=O)N[C@@H](CC(C)C)C(=O)N[C@@H](Cc1c[nH]cn1)C(=O)N[C@H](C)C(=O)N[C@@H](CC(=O)O)C(=O)N[C@@H](CC(C)C)C(=O)N[C@H](C(N)=O)CSC3` [Ac-(06-34-18) Phe2 Tyr4 D-Ala8] (Ac-CSFPYRCLH[dA]DLC-NH2; linker 1-7-13 via TBMB), the inhibition constant Ki under setting [3] was found to be 243 nM. Further, the “F (Kivar/KiWT)” value (Table 3c) is recorded as 578.
In the case of `CC(=O)N[C@H]1CSCc2cc3cc(c2)CSC[C@H](NC(=O)[C@H](CCCNC(=N)N)NC(=O)[C@H](C)NC(=O)[C@@H]2CCCN2C(=O)[C@H](Cc2c[nH]c4ccccc24)NC(=O)[C@H](CO)NC1=O)C(=O)N[C@@H](C(C)(C)C)C(=O)N[C@@H](Cc1c[nH]cn1)C(=O)N[C@@H](CCC(N)=O)C(=O)N[C@@H](CC(=O)O)C(=O)N[C@@H](CC(C)C)C(=O)N[C@H](C(N)=O)CSC3` [Ac-(06-34-18) tBuGly6] (Ac-CSWPARC[Tle]HQDLC-NH2; linker 1-7-13 via TBMB), the Ki under setting [2] is 0.49 nM.
Turning to `CC(=O)N[C@H]1CSCc2cc3cc(c2)CSC[C@H](NC(=O)[C@H](CCCNC(=N)N)NC(=O)[C@H](Cc2ccc(O)cc2)NC(=O)[C@@H]2CCCN2C(=O)[C@H](Cc2ccccc2)NC(=O)[C@H](CO)NC1=O)C(=O)N[C@H](C)C(=O)N[C@@H](Cc1c[nH]cn1)C(=O)N[C@@H](CCC(N)=O)C(=O)N[C@@H](CC(=O)O)C(=O)N[C@@H](CC(C)C)C(=O)N[C@H](C(N)=O)CSC3` [Ac-(06-34-18) Phe2 Tyr4 D-Ala6] (Ac-CSFPYRC[dA]HQDLC-NH2; linker 1-7-13 via TBMB), under setting [3], the Ki came out at 9450 nM. Also, under “Table 3c”, the “F (Kivar/KiWT)” value is given as 22507.
